# Experimental data published in patent publication US20180125995A1, “ANTI-STAPHYLOCOCCUS AUREUS ANTIBODY RIFAMYCIN CONJUGATES AND USES THEREOF” (priority 2014, published 2018).
# B1: monoclonal antibody rF1 (recombinantly produced F1), human IgG1 kappa (antibody, V domains shown)
# VH: EVQLVESGGGLVQPGGSLRLSCAASGFTLSRFAMSWVRQAPGRGLEWVASINNGNNPYYARSVQYRFTVSRDVSQNTVSLQMNNLRAEDSATYFCAKDHPSSGWPTFDSWGPGTLVTVSS
# VL: DIQLTQSPSALPASVGDRVSITCRASENVGDWLAWYRQKPGKAPNLLIYKTSILESGVPSRFSGSGSGTEFTLTISSLQPDDFATYYCQHYMRFPYTFGQGTKVEIKR
# How the values were obtained:
# [1] = test system: MRSA sequestered inside mouse peritoneal macrophages; assay: MIC determination for intracellular bacteria sequestered inside murine macrophages; assay type: cell-based, Staphylococcus aureus; conditions: for MIC: Staphylococcus aureus, MRSA, 24 h, read-out: Intracellular MRSA MIC; for killing of MRSA sequestered inside macrophages: clinically achievable concentrations of the antibiotics
# Experimental: Intracellular MIC was determined on bacteria that were sequestered inside mouse peritoneal macrophages (see below for generation of murine peritoneal macrophages). Macrophages were plated in 24 well culture dishes at a density of 4×10^5 cells/mL and infected with MRSA at a ratio of 10-20 bacteria per macrophage. Macrophage cultures were maintained in growth media supplemented with 50 ug/mL of gentamycin (an antibiotic that is active only on extracellular bacteria) to inhibit the growth of extracellular bacteria and test antibiotics were added to the growth media 1 day after infection. The survival of intracellular bacteria was assessed 24 hours after addition of the antibiotics. Macrophages were lysed with Hanks Buffered Saline Solution supplemented with 0.1% Bovine Serum Albumin and 0.1% Triton-X, and serial dilutions of the lysate were made in Phosphate Buffered Saline solution containing 0.05% Tween-20. The number of surviving intracellular bacteria was determined by plating on Tryptic Soy Agar plates with 5% defibrinated sheep blood.
# (§1) For extracellular bacteria, MRSA was cultured overnight in Tryptic Soy Broth, and the MIC was determined to be the minimum antibiotic dose that prevented growth. For intracellular bacteria, murine peritoneal macrophages were infected with MRSA and cultured in the presence of gentamycin to kill extracellular bacteria. Test antibiotics were added to the culture medium one day post infection, and the total number of surviving intracellular bacteria was determined 24 hours later. The expected serum concentrations for clinically relevant antibiotics was reported in Antimicrobial Agents, Andre Bryskier. ASM Press, Washington D.C. (2005).
# [2] = test system: MRSA (NRS384 strain of USA300); assay: MIC determination for extracellular bacteria in liquid culture; assay type: cell-based; conditions: Staphylococcus aureus, read-out: Extracellular MRSA MIC
# Experimental: The MIC for extracellular bacteria was determined by preparing serial 2-fold dilutions of the antibiotic in Tryptic Soy Broth. Dilutions of the antibiotic were made in quadruplicate in 96 well culture dishes. MRSA (NRS384 strain of USA300) was taken from an exponentially growing culture and diluted to 1×10^4 CFU/mL. The bacteria was cultured in the presence of antibiotic for 18-24 hours with shaking at 37° C. and bacterial growth was determined by reading the Optical Density (OD) at […]. The MIC was determined to be the dose of antibiotic that inhibited bacterial growth by >90%.
# as §1
# [3] = test system: S. aureus; assay: Mouse intravenous infection with free vs intracellular S. aureus, vancomycin therapy; assay type: in vivo, Staphylococcus aureus; conditions: mice, i.v. infection, vancomycin immediately after infection then once per day, 4 days post infection
# Experimental: FIGS. 1A-1F: Intracellular stores of MRSA are protected from vancomycin in vivo and in vitro. […] Four cohorts of mice were infected by intravenous injection with roughly equivalent doses of viable free bacteria or intracellular bacteria and selected groups were treated with vancomycin immediately after infection and then once per day (see Example 2). FIG. 1B and FIG. 1C show bacterial loads in kidney and brain, respectively of infected mice 4 days post infection. The dashed line indicates the limit of detection for the assay. […] (ND=none detected). […] MRSA (free bacteria) was seeded in media, media+vancomycin, or media+vancomycin and plated on a monolayer of MG63 osteoblasts (FIG. 1E) or Human Brain Microvascular Endothelial Cells (HBMEC, FIG. 1F). Extracellular bacteria (free bacteria) grew well in media alone, but were killed by vancomycin. In wells containing a monolayer of mammalian cells (Intracellular+vanco) a fraction of the bacteria were protected from vancomycin during the first 8 hours after infection and were able to expand within the intracellular compartment over 24 hours. Error bars show standard deviation for triplicate wells.
# These experiments compared the virulence of intracellular bacteria versus an equivalent dose of free-living planktonic bacteria, and determined whether the intracellular bacteria are able to establish infection in the presence of vancomycin in vivo. […]
# [4] = test system: MRSA; assay: In vitro survival of MRSA in presence of vancomycin (planktonic, on MG63 osteoblasts, inside peritoneal cells); assay type: cell-based, Staphylococcus aureus
# Experimental: Further analyses in vitro addressed more quantitatively the extent to which intracellular survival facilitates antibiotic evasion. To this end, MG63 osteoblasts were infected with either planktonic MRSA or intracellular MRSA, in the presence of vancomycin.
# Infection of osteoblasts or HBMEC. MG63 cell line was obtained from ATCC (CRL-1427) and maintained in RPMI 1640 tissue culture media supplemented with 10 mM Hepes and 10% Fetal Calf Serum (RPMI-10). HBMEC cells (Catalog #1000) and ECM media (catalog#1001) were obtained from SciencCell Research Labs (Carlsbad, Calif.). Cells were plated in 24 well tissue culture plates and cultured to obtain a confluent layer. On the day of the experiment, the cells were washed once in RPMI (without supplements). MRSA or infected peritoneal cells were diluted in complete RPMI-10 and vancomycin was added at 5 ug/mL immediately prior to infection. Peritoneal cells were added to the osteoblasts at 1×10^6 peritoneal cells/mL. A sample of the cells was lysed with 0.1% triton-x to determine the actual concentration of live intracellular bacteria at the time of infection. The actual titer for all infections was determined by plating serial dilutions of the bacteria on Tryptic Soy Agar with 5% defibrinated sheep blood.
# MRSA (free bacteria) was seeded in media, media+vancomycin, or media+vancomycin and plated on a monolayer of MG63 osteoblasts (FIG. 1E) or Human Brain Microvascular Endothelial Cells (HBMEC, FIG. 1F). Plates were centrifuged to promote contact of the bacteria with the monolayer. At each time point, the culture supernatant was collected to recover extracellular bacteria or adherent cells were lysed to release intracellular bacteria.
# [5] = test system: S. aureus (USA300 NRS384 strain) in murine macrophages; assay: In vitro macrophage assay; assay type: cell-based, Staphylococcus aureus; conditions: for reduction of bacterial loads: highest dose tested (100 ug/mL), intracellular bacteria 2 days later; for killing of intracellular MRSA: macrophage assay in vitro
# Experimental: S. aureus (USA300 NRS384 strain) was incubated with various doses (100 ug/mL, 10 ug/mL, 1 ug/mL or 0.1 ug/mL) of an anti-S. aureus unconjugated antibody, 103 AAC loaded with 1.9 average antibiotic molecules per antibody (AAR2) or with 102 AAC loaded with 3.9 average antibiotic molecules per antibody (AAR4) for 1 hour to permit binding of the antibody to the bacteria. The resulting opsonized bacteria were fed to murine macrophages and incubated at 37° C. to permit phagocytosis (in vitro macrophage assay). After 2 hours, the infection mix was removed and replaced with normal growth media supplemented with 50 ug/mL of gentamycin to kill any remaining extracellular bacteria. The total number of surviving intracellular bacteria was determined 2 days later by plating serial dilutions of the macrophage lysates on Tryptic Soy Agar plates.
# [6] = test system: MRSA (USA300 NRS384 strain); assay: Murine intravenous infection model (SCID IVIG model); assay type: in vivo, Staphylococcus aureus; conditions: for mice having undetectable level of bacteria in hearts: day 4, n=8; for reduction of bacterial load in kidneys: vs naked antibody
# Experimental: Murine intravenous infection model. For studies involving competing human IgG (SCID IVIG model), CB17.SCID mice (Charles River Laboratories, Hollister, Calif.) were reconstituted with GammaGard S/D IGIV Immune Globulin (ASD Healthcare, Brooks Ky.) using a dosing regimen optimized to achieve constant serum levels of at least 10 mg/mL of human IgG in serum. IGIV was administered with an initial intravenous dose of 30 mg per mouse followed by a second dose of 15 mg/mouse by intraperitoneal injection after 6 hours, and subsequent daily dosing of 15 mg per mouse by intraperitoneal injection for 3 consecutive days.
# Mice (n=8 for each of antibody or AAC) were infected 4 hours after the first dose of IGIV with 1×10^7 CFU of MRSA (USA300 NRS384 strain) diluted in phosphate buffered saline by intravenous injection. Infected mice were treated with 50 mg/kg of rF1 naked antibody, 103 AAC DAR2 or 102 AAC DAR4. Mice were given a single dose of AAC 26h post infection by intravenous injection, sacrificed on day 4 post infection, and kidneys and hearts were harvested in 5 mL of phosphate buffered saline. The tissue samples were homogenized using a GentleMACS Dissociator™ (Miltenyi Biotec, Auburn, Calif.). The total number of bacteria recovered per organ was determined by plating serial dilutions of the tissue homogenate in PBS 0.05% Tween on Tryptic Soy Agar with 5% defibrinated sheep blood.
# [7] = biological target: glycosylated serine-aspartate repeat (SDR) proteins of Staphylococcus aureus, as displayed on whole bacteria, in lysates or in cell wall preparations; assay: flow cytometry on whole USA300 bacteria
# [8] = CB17.SCID mice with IGIV, 50 mg/kg single i.v. dose 26h post infection, day 4
molecule,measurement,setting,value
CCCCCCCCCC(=O)N[C@@H](Cc1c[nH]c2ccccc12)C(=O)N[C@H](CC(N)=O)C(=O)N[C@@H](CC(=O)O)C(=O)N[C@@H]1C(=O)NCC(=O)N[C@@H](CCCN)C(=O)N[C@@H](CC(=O)O)C(=O)N[C@H](C)C(=O)N[C@@H](CC(=O)O)C(=O)NCC(=O)N[C@H](CO)C(=O)N[C@@H]([C@H](C)CC(=O)O)C(=O)N[C@@H](CC(=O)c2ccccc2N)C(=O)O[C@@H]1C [Daptomycin],MIC,[1],> 100 µg/mL
same,killing of MRSA sequestered inside macrophages,[1],failed to kill
same,MIC,[2],4 µg/mL
CC(=O)NC[C@H]1CN(c2ccc(N3CCOCC3)c(F)c2)C(=O)O1 [Linezolid],killing of MRSA sequestered inside macrophages,[1],failed to kill
CO[C@H]1/C=C/O[C@@]2(C)Oc3c(C)c(O)c4c(O)c(c(/C=N/N5CCN(C)CC5)c(O)c4c3C2=O)NC(=O)/C(C)=C\C=C\[C@H](C)[C@H](O)[C@@H](C)[C@@H](O)[C@@H](C)[C@H](OC(C)=O)[C@@H]1C [Rifampicin],fold higher dose to eliminate intracellular MRSA compared to MIC of planktonic bacteria,[1]; intracellular vs planktonic,"6,000 fold"
CN[C@H](CC(C)C)C(=O)N[C@H]1C(=O)N[C@@H](CC(N)=O)C(=O)N[C@H]2C(=O)N[C@H]3C(=O)N[C@H](C(=O)N[C@H](C(=O)O)c4cc(O)cc(O)c4-c4cc3ccc4O)[C@H](O)c3ccc(c(Cl)c3)Oc3cc2cc(c3O[C@@H]2O[C@H](CO)[C@@H](O)[C@H](O)[C@H]2O[C@H]2C[C@](C)(N)[C@H](O)[C@H](C)O2)Oc2ccc(cc2Cl)[C@H]1O [Vancomycin],establishment of infection in kidney and brain under vancomycin therapy,[3],"intracellular bacteria, but not planktonic bacteria, were able to establish infection"
same,MIC,[1],> 100 µg/mL
same,killing of MRSA sequestered inside macrophages,[1],failed to kill
same,survival of intracellular MRSA in the leukocytes,"[4]; MRSA sequestered inside peritoneal cells, vancomycin, identical conditions",About 15%
same,killing of planktonic bacteria,"[4]; planktonic bacteria exposed to vancomycin alone, 5 ug/mL, one day in culture",efficiently killed
same,surviving bacteria associated with MG63 cells (% of input),"[4]; planktonic bacteria plated on MG63 osteoblasts, vancomycin, one day after infection",approximately 0.06%
same,MIC,[2],1 µg/mL
"thio-rF1-HC-121C, LC-V205C-MC-(CBDK-cit)-PAB-(dimethylpipBOR) [AAC 102]",reduction of bacterial loads,[5],"more than 4,000 fold"
same,killing of intracellular MRSA,[5],killed intracellular MRSA
same,eradication of infection in hearts,"[6]; 50 mg/kg single i.v. dose, day 4",completely eradicated infection in hearts
same,mice having undetectable level of bacteria in hearts,[6]; 50 mg/kg single i.v. dose,8 out of 8
same,reduction of bacterial load in kidneys,[6]; [8],"more than 30,000 fold"
thio-rF1-LC-V205C-MC-(CBDK-cit)-PAB-(dimethylpipBOR) [AAC 103],reduction of bacterial loads,[5],350 fold
same,killing of intracellular MRSA,[5],killed intracellular MRSA
same,mice having undetectable level of bacteria in hearts,[6]; 50 mg/kg single i.v. dose,6 out of 8
same,reduction of bacterial burdens in heart,[6]; [8],approximately 70 fold
same,reduction of bacterial load in kidneys,[6]; [8],approximately 30 fold
B1,fold of maximum binding (MFI) against anti-ClfA mAb 4675,[7],10 fold
